Data: patent publication US10787452B2 (Vertex Pharmaceuticals Incorporated, priority 2012, dated 2020)

tested on: HCT116 colorectal cancer cells; assay: Cisplatin sensitization assay (96 h cell viability MTS); type: cell-based; settings: 96 h MTS, compound plus Cisplatin;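 note: compound concentration needed to lower the Cisplatin-alone IC50 by a set fold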
Outline: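 Viability is measured with MTS reagent, added after 96 h and developed for 1 h at 37° C. Beforehand, cells receive compound and cisplatin simultaneously in a concentration matrix of 2-fold serial dilutions starting at 10 μM final.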

Q: Nc1nn2cc(F)cnc2c1C(=O)Nc1cncc(F)c1N1CCC(C(=O)N2CC(F)C2)CC1 [I-G-74, 2-amino-6-fluoro-N-(5-fluoro-4-(4-(3-fluoroazetidine-1-carbonyl)piperidin-1-yl)pyridin-3-yl)pyrazolo[1,5-a]pyrimidine-3-carboxamide] was tested. Which “Cisplatin Sensitization Assay” value did it give?
A: Its value is “+++ (Compounds with a Cisplatin sensitization value of <0.02 μM are marked with “+++.”)”.

Q: For COC1(C)CN(C(=O)C2CCN(c3c(F)cncc3NC(=O)c3c(N)nn4cc(F)cnc34)CC2)C1 [I-G-75, 2-amino-6-fluoro-N-(5-fluoro-4-(4-(3-methoxy-3-methylazetidine-1-carbonyl)piperidin-1-yl)pyridin-3-yl)pyrazolo[1,5-a]pyrimidine-3-carboxamide], which “Cisplatin Sensitization Assay” value is on record?
A: The value was “+++ (Compounds with a Cisplatin sensitization value of <0.02 μM are marked with “+++.”)”.

Q: N#CC1CN(C(=O)C2CCN(c3c(F)cncc3NC(=O)c3c(N)nn4cc(F)cnc34)CC2)C1 [I-G-76, 2-amino-N-(4-(4-(3-cyanoazetidine-1-carbonyl)piperidin-1-yl)-5-fluoropyridin-3-yl)-6-fluoropyrazolo[1,5-a]pyrimidine-3-carboxamide] was tested. Which “Cisplatin Sensitization Assay” value did it give?
A: Its value is “+++ (Compounds with a Cisplatin sensitization value of <0.02 μM are marked with “+++.”)”.

Q: Nc1nn2cc(F)cnc2c1C(=O)Nc1cnccc1N1CCC(C(=O)N2CCC2)CC1 [I-G-77, 2-amino-N-(4-(4-(azetidine-1-carbonyl)piperidin-1-yl)pyridin-3-yl)-6-fluoropyrazolo[1,5-a]pyrimidine-3-carboxamide] was tested. Which “Cisplatin Sensitization Assay” value did it give?
A: The value was “+++ (Compounds with a Cisplatin sensitization value of <0.02 μM are marked with “+++.”)”.

Q: COC1CN(C(=O)C2CCN(c3ccncc3NC(=O)c3c(N)nn4cc(F)cnc34)CC2)C1 [I-G-78, 2-amino-6-fluoro-N-(4-(4-(3-methoxyazetidine-1-carbonyl)piperidin-1-yl)pyridin-3-yl)pyrazolo[1,5-a]pyrimidine-3-carboxamide] was tested. Which “Cisplatin Sensitization Assay” value did it give?
A: The value was “+++ (Compounds with a Cisplatin sensitization value of <0.02 μM are marked with “+++.”)”.

Q: How did the “Cisplatin Sensitization Assay” value turn out when COC1(C)CN(C(=O)C2CCN(c3ccncc3NC(=O)c3c(N)nn4cc(F)cnc34)CC2)C1 [I-G-79, 2-amino-6-fluoro-N-(4-(4-(3-methoxy-3-methylazetidine-1-carbonyl)piperidin-1-yl)pyridin-3-yl)pyrazolo[1,5-a]pyrimidine-3-carboxamide] was run?
A: The value was “+++ (Compounds with a Cisplatin sensitization value of <0.02 μM are marked with “+++.”)”.

Q: With Nc1nn2cc(F)cnc2c1C(=O)Nc1cnccc1N1CCC(C(=O)N2CC(F)(F)C2)CC1 [I-G-80, 2-amino-N-(4-(4-(3,3-difluoroazetidine-1-carbonyl)piperidin-1-yl)pyridin-3-yl)-6-fluoropyrazolo[1,5-a]pyrimidine-3-carboxamide] as the molecule, how does the “Cisplatin Sensitization Assay” value read?
A: Its value is “+++ (Compounds with a Cisplatin sensitization value of <0.02 μM are marked with “+++.”)”.

Q: For N#CC1CN(C(=O)C2CCN(c3ccncc3NC(=O)c3c(N)nn4cc(F)cnc34)CC2)C1 [I-G-81, 2-amino-N-(4-(4-(3-cyanoazetidine-1-carbonyl)piperidin-1-yl)pyridin-3-yl)-6-fluoropyrazolo[1,5-a]pyrimidine-3-carboxamide], which “Cisplatin Sensitization Assay” value is on record?
A: Its value is “+++ (Compounds with a Cisplatin sensitization value of <0.02 μM are marked with “+++.”)”.

Q: For Nc1nn2cc(F)cnc2c1C(=O)Nc1cnccc1N1CCC(C(=O)N2CC(F)C2)CC1 [I-G-82, 2-amino-6-fluoro-N-(4-(4-(3-fluoroazetidine-1-carbonyl)piperidin-1-yl)pyridin-3-yl)pyrazolo[1,5-a]pyrimidine-3-carboxamide], which “Cisplatin Sensitization Assay” value is on record?
A: The value was “+++ (Compounds with a Cisplatin sensitization value of <0.02 μM are marked with “+++.”)”.

Q: For Nc1nn2cc(F)cnc2c1C(=O)Nc1cnccc1N1CCC(C(=O)N2CCCC2)CC1 [I-G-83, 2-amino-6-fluoro-N-(4-(4-(pyrrolidine-1-carbonyl)piperidin-1-yl)pyridin-3-yl)pyrazolo[1,5-a]pyrimidine-3-carboxamide], which “Cisplatin Sensitization Assay” value is on record?
A: The value was “+++ (Compounds with a Cisplatin sensitization value of <0.02 μM are marked with “+++.”)”.

Q: For Nc1nn2cc(F)cnc2c1C(=O)Nc1cnccc1N1CCC(C(=O)N2CCC3(COC3)C2)CC1 [I-G-84, N-(4-(4-(2-oxa-6-azaspiro[3.4]octane-6-carbonyl)piperidin-1-yl)pyridin-3-yl)-2-amino-6-fluoropyrazolo[1,5-a]pyrimidine-3-carboxamide], which “Cisplatin Sensitization Assay” value is on record?
A: Its value is “+++ (Compounds with a Cisplatin sensitization value of <0.02 μM are marked with “+++.”)”.

Q: How did the “Cisplatin Sensitization Assay” value turn out when Nc1nn2cc(F)cnc2c1C(=O)Nc1cnccc1N1CCC(C(=O)N2CCOCC2)CC1 [I-G-85, 2-amino-6-fluoro-N-(4-(4-(morpholine-4-carbonyl)piperidin-1-yl)pyridin-3-yl)pyrazolo[1,5-a]pyrimidine-3-carboxamide] was run?
A: Its value is “+++ (Compounds with a Cisplatin sensitization value of <0.02 μM are marked with “+++.”)”.

Q: Which “Cisplatin Sensitization Assay” value does the source give for CS(=O)(=O)C1CN(C(=O)C2CCN(c3c(F)cncc3NC(=O)c3c(N)nn4cc(F)cnc34)CC2)C1 [I-G-86, 2-amino-6-fluoro-N-(5-fluoro-4-(4-(3-(methylsulfonyl)azetidine-1-carbonyl)piperidin-1-yl)pyridin-3-yl)pyrazolo[1,5-a]pyrimidine-3-carboxamide] here?
A: The value was “+++ (Compounds with a Cisplatin sensitization value of <0.02 μM are marked with “+++.”)”.

Q: How did the “Cisplatin Sensitization Assay” value turn out when Nc1nn2cc(Cl)cnc2c1C(=O)Nc1cncc(F)c1N1CCC(C(=O)N2CCN3CCC2CC3)CC1 [I-G-87, N-(4-(4-(1,4-diazabicyclo[3.2.2]nonane-4-carbonyl)piperidin-1-yl)-5-fluoropyridin-3-yl)-2-amino-6-chloropyrazolo[1,5-a]pyrimidine-3-carboxamide] was run?
A: The value was “+++ (Compounds with a Cisplatin sensitization value of <0.02 μM are marked with “+++.”)”.

Q: For Nc1nn2cc(F)cnc2c1C(=O)Nc1cnccc1N1CCC(C(=O)N2CC3(COC3)C2)CC1 [I-G-88, N-(4-(4-(2-oxa-6-azaspiro[3.3]heptane-6-carbonyl)piperidin-1-yl)pyridin-3-yl)-2-amino-6-fluoropyrazolo[1,5-a]pyrimidine-3-carboxamide], which “Cisplatin Sensitization Assay” value is on record?
A: Its value is “+++ (Compounds with a Cisplatin sensitization value of <0.02 μM are marked with “+++.”)”.

Q: For CS(=O)(=O)C1CN(C(=O)C2CCN(c3ccncc3NC(=O)c3c(N)nn4cc(F)cnc34)CC2)C1 [I-G-89, 2-amino-6-fluoro-N-(4-(4-(3-(methylsulfonyl)azetidine-1-carbonyl)piperidin-1-yl)pyridin-3-yl)pyrazolo[1,5-a]pyrimidine-3-carboxamide], which “Cisplatin Sensitization Assay” value is on record?
A: The value was “+ (Compounds with a Cisplatin sensitization value >0.2 μM but <5 μM are marked with “+.”)”.

Q: How did the “Cisplatin Sensitization Assay” value turn out when Nc1nn2cc(F)cnc2c1C(=O)Nc1cnccc1N1CCC(C(=O)N2CC3(CCO3)C2)CC1 [I-G-90, N-(4-(4-(1-oxa-6-azaspiro[3.3]heptane-6-carbonyl)piperidin-1-yl)pyridin-3-yl)-2-amino-6-fluoropyrazolo[1,5-a]pyrimidine-3-carboxamide] was run?
A: Its value is “+++ (Compounds with a Cisplatin sensitization value of <0.02 μM are marked with “+++.”)”.

Q: Which “Cisplatin Sensitization Assay” value does the source give for CCOC1CN(C(=O)C2CCN(c3ccncc3NC(=O)c3c(N)nn4cc(F)cnc34)CC2)C1 [I-G-91, 2-amino-N-(4-(4-(3-ethoxyazetidine-1-carbonyl)piperidin-1-yl)pyridin-3-yl)-6-fluoropyrazolo[1,5-a]pyrimidine-3-carboxamide] here?
A: The value was “+++ (Compounds with a Cisplatin sensitization value of <0.02 μM are marked with “+++.”)”.

Q: Which “Cisplatin Sensitization Assay” value does the source give for CC1(N2CCN(C(=O)C3CCN(c4c(F)cncc4NC(=O)c4c(N)nn5cc(F)cnc45)CC3)CC2)COC1 [I-G-92, 2-amino-6-fluoro-N-(5-fluoro-4-(4-(4-(3-methyloxetan-3-yl)piperazine-1-carbonyl)piperidin-1-yl)pyridin-3-yl)pyrazolo[1,5-a]pyrimidine-3-carboxamide] here?
A: The value was “+++ (Compounds with a Cisplatin sensitization value of <0.02 μM are marked with “+++.”)”.

Q: For CO[C@H]1CCN(C(=O)C2CCN(c3ccncc3NC(=O)c3c(N)nn4cc(F)cnc34)CC2)C1 [I-G-94, (S)-2-amino-6-fluoro-N-(4-(4-(3-methoxypyrrolidine-1-carbonyl)piperidin-1-yl)pyridin-3-yl)pyrazolo[1,5-a]pyrimidine-3-carboxamide], which “Cisplatin Sensitization Assay” value is on record?
A: Its value is “+++ (Compounds with a Cisplatin sensitization value of <0.02 μM are marked with “+++.”)”.

Q: For C[N+]1([O-])CCN(C(=O)C2CCN(c3c(F)cncc3NC(=O)c3c(N)nn4cc(F)cnc34)CC2)CC1 [I-G-95, 4-(1-(3-(2-amino-6-fluoropyrazolo[1,5-a]pyrimidine-3-carboxamido)-5-fluoropyridin-4-yl)piperidine-4-carbonyl)-1-methylpiperazine 1-oxide], which “Cisplatin Sensitization Assay” value is on record?
A: Its value is “+++ (Compounds with a Cisplatin sensitization value of <0.02 μM are marked with “+++.”)”.

Q: CN1CC(N2CCN(C(=O)C3CCN(c4c(F)cncc4NC(=O)c4c(N)nn5cc(F)cnc45)CC3)CC2)C1 [I-G-96, 2-amino-6-fluoro-N-(5-fluoro-4-(4-(4-(1-methylazetidin-3-yl)piperazine-1-carbonyl)piperidin-1-yl)pyridin-3-yl)pyrazolo[1,5-a]pyrimidine-3-carboxamide] was tested. Which “Cisplatin Sensitization Assay” value did it give?
A: The value was “+++ (Compounds with a Cisplatin sensitization value of <0.02 μM are marked with “+++.”)”.

Q: Which “Cisplatin Sensitization Assay” value does the source give for COCC1CN(C(=O)C2CCN(c3c(F)cncc3NC(=O)c3c(N)nn4cc(F)cnc34)CC2)C1 [I-G-98, 2-amino-6-fluoro-N-(5-fluoro-4-(4-(3-(methoxymethyl)azetidine-1-carbonyl)piperidin-1-yl)pyridin-3-yl)pyrazolo[1,5-a]pyrimidine-3-carboxamide] here?
A: The value was “+++ (Compounds with a Cisplatin sensitization value of <0.02 μM are marked with “+++.”)”.

Q: Which “Cisplatin Sensitization Assay” value does the source give for CO[C@H]1CCN(C(=O)C2CCN(c3c(F)cncc3NC(=O)c3c(N)nn4cc(F)cnc34)CC2)C1 [I-G-99, (S)-2-amino-6-fluoro-N-(5-fluoro-4-(4-(3-methoxypyrrolidine-1-carbonyl)piperidin-1-yl)pyridin-3-yl)pyrazolo[1,5-a]pyrimidine-3-carboxamide] here?
A: The value was “+++ (Compounds with a Cisplatin sensitization value of <0.02 μM are marked with “+++.”)”.
